Tests used:
Experiment in all cases: relative viability (nuclei count vs DMSO), 5 days (fraction); higher = more cells survive
[1] = compound: C1CN(CCN1)C2=CC=C(C=C2)C3=CN4C(=C(C=N4)C5=CC=NC6=CC=CC=C56)N=C3 [DM3189] + C[C@]1(O)C[C@@H](c2nc(-c3ccc4ccc(-c5ccccc5)nc4c3)c3c(N)nccn32)C1 [Linsitinib] (partner 1 µM)
In short: (§1)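 Each reported value is a median over duplicate plates. It expresses relative viability: treated-well nuclei count divided by vehicle-well nuclei count. Lung cancer cell lines in 1536-well plates were dosed by pin tool a day after seeding, alone with one drug or with a fixed anchor-drug dose plus five library-drug doses (not always all listed) in √10 steps, and nuclei were counted after 5 days.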

[2] = compound: C1CN(CCN1)C2=CC=C(C=C2)C3=CN4C(=C(C=N4)C5=CC=NC6=CC=CC=C56)N=C3 [DM3189] + O=C(c1cc(Cc2n[nH]c(=O)c3ccccc23)ccc1F)N1CCN(C(=O)C2CC2)CC1 [Olaparib] (partner 8 µM)
In short: as §1

[3] = compound: C1CN(CCN1)C2=CC=C(C=C2)C3=CN4C(=C(C=N4)C5=CC=NC6=CC=CC=C56)N=C3 [DM3189] + O=C(CCCCCCC(=O)Nc1ccccc1)NO [Vorinostat] (partner 1 µM)
In short: as §1

[4] = compound: C1CN(CCN1)C2=CC=C(C=C2)C3=CN4C(=C(C=N4)C5=CC=NC6=CC=CC=C56)N=C3 [DM3189] + Cc1nc(Nc2ncc(C(=O)Nc3c(C)cccc3Cl)s2)cc(N2CCN(CCO)CC2)n1 [Dasatinib] (partner 0.075 µM)
In short: as §1

[5] = compound: C1CN(CCN1)C2=CC=C(C=C2)C3=CN4C(=C(C=N4)C5=CC=NC6=CC=CC=C56)N=C3 [DM3189] + Cc1cc(Nc2cc(N3CCN(C)CC3)nc(Sc3ccc(NC(=O)C4CC4)cc3)n2)n[nH]1 [Tozasertib] (partner 0.1 µM)
In short: as §1

| Cell Line | relative viability ([1]; first compound 0.08 µM) | relative viability ([1]; first compound 0.253 µM) | relative viability ([1]; first compound 0.8 µM) | relative viability ([1]; first compound 2.53 µM) | relative viability ([2]; first compound 0.08 µM) | relative viability ([2]; first compound 0.253 µM) | relative viability ([2]; first compound 0.8 µM) | relative viability ([2]; first compound 2.53 µM) | relative viability ([3]; first compound 0.08 µM) | relative viability ([3]; first compound 0.253 µM) | relative viability ([3]; first compound 0.8 µM) | relative viability ([3]; first compound 2.53 µM) | relative viability ([4]; first compound 0.08 µM) | relative viability ([4]; first compound 0.253 µM) | relative viability ([4]; first compound 0.8 µM) | relative viability ([4]; first compound 2.53 µM) | relative viability ([5]; first compound 0.08 µM) | relative viability ([5]; first compound 0.253 µM) | relative viability ([5]; first compound 0.8 µM) | relative viability ([5]; first compound 2.53 µM) |
| --- | --- | --- | --- | --- | --- | --- | --- | --- | --- | --- | --- | --- | --- | --- | --- | --- | --- | --- | --- | --- |
| EMC-BAC-2 | 0.848 | 0.8 | 0.82 | 0.827 | 0.5 | 0.455 | 0.339 | 0.492 | 0.53 | 0.439 | 0.477 | 0.741 | 0.372 | 0.32 | 0.319 | 0.353 | 0.302 | 0.283 | 0.254 | 0.323 |
| EPLC-272H | 1.24 | 1.3 | 1.16 | 1.29 | 0.669 | 0.714 | 0.735 | 0.565 | 0.386 | 0.517 | 0.247 | 0.402 | 0.406 | 0.375 | 0.276 | 0.265 | 0.418 | 0.252 | 0.235 | 0.253 |
| H3255 | 0.951 | 0.982 | 0.846 | 0.994 | 0.576 | 0.573 | 0.547 | 0.627 | 1.11 | 0.826 | 0.845 | 0.89 | 0.553 | 0.303 | 0.442 | 0.32 | 0.271 | 0.604 | 0.715 | 0.762 |
| HARA | 1.2 | 0.853 | 0.997 | 1.31 | 1.23 | 0.733 | 0.579 | 0.654 | 0.596 | 0.539 | 0.606 | 0.622 | 0.358 | 0.262 | 0.306 | 0.313 | 0.0946 | 0.0943 | 0.0953 | 0.0845 |
| HCC-15 | 0.873 | 0.821 | 0.857 | 0.715 | 0.737 | 0.724 | 0.518 | 0.591 | 1.03 | 0.803 | 0.732 | 0.815 | 0.632 | 0.541 | 0.492 | 0.559 | 0.246 | 0.44 | 0.35 | 0.375 |
| HCC-78 | 0.515 | 0.465 |  | 0.474 | 0.763 | 0.659 | 0.586 | 0.944 | 0.41 | 0.453 | 0.51 | 0.557 | 0.362 | 0.495 | 0.393 | 0.381 | 0.263 | 0.464 | 0.411 | 0.465 |
| HCC-366 | 0.641 | 0.538 | 0.55 | 0.649 | 0.312 | 0.325 | 0.311 | 0.416 | 0.363 | 0.285 | 0.191 | 0.41 | 0.943 | 0.759 |  | 0.846 | 0.133 | 0.0982 |  | 0.0984 |
| HCC-827 | 0.982 | 0.863 | 0.888 | 0.938 | 0.665 | 0.573 | 0.511 | 0.698 | 1.04 | 0.821 | 0.876 | 0.681 | 0.378 | 0.276 | 0.317 | 0.378 | 0.376 | 0.36 | 0.354 | 0.377 |
| HOP-62 | 1.05 | 0.901 | 0.98 | 1.03 | 0.347 | 0.547 | 0.167 | 0.404 | 0.566 | 0.702 | 0.573 | 0.66 | 0.78 | 0.65 | 0.716 | 0.68 | 0.31 | 0.347 | 0.389 | 0.356 |
| LC-2-ad | 0.858 | 0.847 | 0.819 | 0.855 | 0.713 | 0.66 | 0.652 | 0.747 | 0.744 | 0.7 | 0.663 | 0.723 | 0.636 | 0.487 | 0.458 | 0.572 | 0.461 | 0.396 | 0.474 | 0.482 |
| LCLC-97TM1 | 0.162 | 0.188 | 0.145 | 0.181 | 0.415 | 0.314 | 0.281 | 0.397 | 0.73 | 0.647 | 0.687 | 0.751 | 0.768 | 0.591 | 0.591 | 0.375 | 0.229 | 0.171 | 0.182 | 0.188 |
| LCLC-103H | 1.1 | 1.07 | 1.05 | 1.17 | 0.78 | 0.713 | 0.736 | 0.75 | 0.816 | 0.8 | 0.734 | 0.744 | 0.607 | 0.457 | 0.393 | 0.339 | 0.502 | 0.453 | 0.461 | 0.408 |
| LK-2 | 0.406 | 0.321 | 0.447 | 0.189 | 0.626 | 0.613 | 0.388 | 0.489 | 0.292 | 0.273 | 0.213 | 0.227 | 0.294 | 0.287 | 0.221 | 0.29 | 0.183 | 0.187 | 0.185 | 0.166 |
| LOU-NH91 | 0.901 | 0.956 | 0.802 | 0.923 | 0.921 | 0.896 | 0.76 | 0.92 | 1.15 | 0.891 | 0.71 | 0.91 | 0.688 | 0.541 | 0.51 | 0.475 | 0.7 | 0.696 | 0.659 | 0.637 |
| LU99A | 0.49 | 0.49 |  | 0.445 | 0.296 | 0.274 |  | 0.264 | 0.492 | 0.434 |  | 0.458 | 0.748 | 0.565 |  | 0.595 | 0.284 | 0.242 |  | 0.307 |
| LXF-289 | 0.977 | 0.939 | 0.908 | 1.06 | 1.08 | 1.06 | 1.06 | 1.11 | 0.759 | 0.829 | 0.663 | 0.757 | 0.264 | 0.197 | 0.189 | 0.223 | 0.208 | 0.196 | 0.166 | 0.236 |
